# Laboratory results: US20140051729A1, “COMPOSITIONS AND METHODS FOR TREATING DEGENERATIVE MUSCLE CONDITIONS” (University of Washington, priority 2011, published 2014)
# Experiments:
# A/J mice = assay: S1P in dysferlinopathy model after CTX injury (picrosirius red fibrosis); type: in vivo, mouse; conditions: A/J mice 9 month old, S1P intramuscular daily three days, 6 days post injury, vs vehicle
# Protocol: The A/J mouse strain (JAX Mice, Bar Habor, Me.) lacks dysferlin and is a model for dysferlinopathy. The effects of S1P treatment of A/J mice was examined following CTX induced acute injury. CTX was applied to both TA muscles (2× male, 2× female, 9 month old), then S1P was injected intramuscularly into left TAs and a vehicle control (saline) in right TAs daily for the first three days following CTX injury. The TAs were harvested and examined for muscle fibrosis (picrosirius red staining) 6 days post injury.
# Right and left TAs of three, 3 month old male mdx4cv:Myf5nlacZ/+ were injected with […] cardiotoxin (Calbiochem) in PBS from Naja nigrcollis. For the dysferlinopathy study, right and left TAs of 9 month old male and female A/J mice (JAX Mice, Bar Harbor, Me.) were injected with […] cardiotoxin (Calbiochem) in PBS from Naja nigrcollis. S1P (Enzo; Calbiochem) preparation was done according to manufacturer's instructions. Briefly, S1P was dissolved in methanol (0.5 mg/ml) and aliquoted, then the solvent was evaporated with a stream of nitrogen to deposit a thin film on the inside of the tube. […]
# All mouse muscles were frozen directly in OCT with liquid nitrogen cooled in isopentane and sections of 8 μm thickness were obtained. […] Staining quantifications were all done using ImageJ v1.40 (Wayne Rasband, NIH) cell counter plugin (Kurt De Vos, University of Sheffield). […]
# mdx:myf5^nlacz/+ mice = assay: Intramuscular S1P after CTX injury in mdx:Myf5nlacZ/+ mice (x-gal, myogenin, eMyHC staining); type: in vivo, mouse
# Protocol: S1P is involved in muscle satellite cell turnover, myoblast differentiation, and muscle regeneration in non-diseased mice. […] The effects of S1P treatment were examined following CTX induced acute injury in dystrophic muscles. To identify myogenic cells, mdx:myf5^nlacz/+ mice were used carrying the nuclear lacZ reporter driven by the endogenous Myf5 gene. CTX was applied to both TA muscles (n=3 mice, 3 month-old mdx:myf5^nlacz/+ males), then S1P was injected intramuscularly into left TAs and a vehicle control into right TAs daily for the first three days following injury. TAs were harvested on day 4 post injury for analysis of β-galactosidase positive (Myf5+) nuclei.
# Right and left TAs of three, 3 month old male mdx4cv:Myf5nlacZ/+ were injected with […] cardiotoxin (Calbiochem) in PBS from Naja nigrcollis. For the dysferlinopathy study, right and left TAs of 9 month old male and female A/J mice (JAX Mice, Bar Harbor, Me.) were injected with […] cardiotoxin (Calbiochem) in PBS from Naja nigrcollis. S1P (Enzo; Calbiochem) preparation was done according to manufacturer's instructions. Briefly, S1P was dissolved in methanol (0.5 mg/ml) and aliquoted, then the solvent was evaporated with a stream of nitrogen to deposit a thin film on the inside of the tube. Aliquots were dissolved with 4 mg/ml BSA (fatty acid free) to make 500 uM stocks. Directly following cardiotoxin injection, 500 uM S1P in PBS with 4 mg/ml BSA was injected in left TAs (20 ul), daily until day 3 post-injury at which time animals were euthanized and muscles were harvested for freezing. Right TAs were injected with an equal volume of PBS with 4 mg/ml BSA as vehicle controls. In a separate experiment TAs of four 2.5 month-old female mdx4cv were injected with S1P or vehicle under the same conditions stated above, in the absence of injury.
# All mouse muscles were frozen directly in OCT with liquid nitrogen cooled in isopentane and sections of 8 μm thickness were obtained. Tissue for x-gal staining, was fixed for 10 min with 2% formaldehyde/0.2% glutaraldehyde and incubated overnight at 37° C. with staining buffer (PBS with 1 mg/ml x-gal, 5 mM potassium ferricyanide, 5 mM potassium ferrocyanide, and 2 mM […] (all from Fisher). Oil Red-O and Picrosirius red staining were done following established protocols. For eMyHC staining, tissue was first fixed with 2% formaldehyde for 5 min, treated with streptavidin/avidin blocking kit (Vector labs), and blocked with IgG block from M.O.M kit (Vector Labs) for 5 hrs at 4° C. Following blockade, concentrated mouse anti-eMyHC (clone F1.652 received at 357 μg/ml IgG) obtained from the developmental studies hybridoma bank (DHSB, University of Iowa) was administered at 1:400 dilution, overnight at 4° C. The remainder of the staining was done following mouse-on-mouse (M.O.M) kit staining instructions. For laminin staining tissue was also fixed with 2% formaldehyde for 5 min, and then treated with polyclonal rabbit anti-laminin (Sigma) for 1 hr at a 1:400 dilution in PBS+1% BSA. Following washes, Alexa Fluor 488 conjugated goat anti-rabbit IgG (Invitrogen) was administered at 1:800 dilution for 1 hr. Controls omitting the primary antibody were included with all staining. Staining quantifications were all done using ImageJ v1.40 (Wayne Rasband, NIH) cell counter plugin (Kurt De Vos, University of Sheffield). Calculations, statistics, and graphs were generated with Microsoft Excel. […]
# Akt/mTOR signaling = assay: Western blot of uninjured TA muscle of mdx mice after intramuscular S1P; type: in vivo, mouse; conditions: three days of daily S1P injections, vs vehicle TA
# Protocol: To discern if the S1P dependent increase in mdx muscle fiber size was due to hypertrophy, the activation of Akt/mTOR signaling was examined. S1P induced hypertrophy has been described in cultured cardiomyocytes, which was accompanied by activation of Akt and S6 kinase. In turn, Akt and mTOR signaling via S6 kinase, an activator of ribosomal S6 implicated in protein synthesis, has been described as sufficient to induce skeletal muscle hypertrophy. Therefore it was determined if the increase in muscle fibers by S1P was mediated by Akt/mTOR signaling. Since THI induces a S1P increase throughout the body, S1P was administered directly into muscle in mdx mice and levels of activated/phosphorylated Akt, mTOR, and S6 were measured. S1P was injected directly into uninjured TA muscle to measure potential effects on these pathways in the absence of injury. As before, S1P was injected into left TAs and vehicle into right TAs of the same animals (FIG. 6a). […]
# Tissue for western blot analysis was snap frozen in liquid nitrogen and subsequently homogenized. […] Protein extracts were separated using BioRad Tris-HCl ready gels 4-20% linear gradient and transferred to polyvinylidene difluoride (PVDF) membranes with a wet transfer system (BioRad). […] The signals were detected using an enhanced chemiluminescence kit (Millipore) and CL-XPosure Films (Thermo Scientific) were analyzed using ImageJ.
# [1] = tested on: dystrophic flies (w; +/+; Dys^det1/Dys^det1); assay: Myofibril analysis of muscle wasting in dystrophic flies fed S1P promoting agents; type: in vivo, Drosophila; conditions: 217 μM in feed, three feeding cycles
# Protocol: The effect of THI, a derivative of THI ((E)-1-(4-((1R,2S,3R)-1,2,3,4-tetrahydroxybutyl)-1H-imidazol-2-yl)-ethanone oxime) (“THI-oxime”), and a sphingosine analog (FTY720) on muscle wasting in dystrophic Drosopila flies was observed. Before feeding, 4 day old dystrophic flies (genotype: w; +/+; Dys^det1/Dys^det1) were placed in empty vials and starved for 6 hours. The flies were then provided access to one of a solution of 0.05 mg/mL (217 μM) 2-Acetyl-4(5)-tetrahydroxybutyl Imidazole (THI), or 217 μM FTY720, or 217 μM THI-oxime, in 5% light corn syrup in water for 16-18 hrs. After feeding, the flies were placed in new yeasted vials for 6-7 hrs. Flies were then transferred to empty vials with access to a 217 μM solution of THI, FTY720 or THI-oxime in a 5% light corn syrup in water for 16-18 hrs. This feeding cycle was repeated for a third time. After feeding for three cycles, the flies were placed in new yeasted vials. The 7-day old flies that had been administered the THI-oxime were analyzed immediately after the last feeding. The flies that has been administered THI and FTY720 were analyzed as 10-day old flies, three days after the last feeding with THI and FTY720.
# Myofibril immunochemistry analysis was performed as disclosed herein. For each treatment group, 5 flies were analyzed, and 3 muscles per fly and 2 myofibrils per muscle were analyzed. Two tailed Student's t test was used to evaluate significance.
# Flies were dipped in 95% EtOH and then dissected in 1×PBS (pH 7.4). Heads and abdomens were removed, and the thoraxes opened. Samples were stained using a modified ovary staining protocol 3. Samples were then fixed in 5% paraformaldehyde (Electron Microscopy Sciences) for 1 hour, rinsed in PBT (PBS/0.2% Triton X-100 v/v) 4 times, and then blocked for 1 hour in PBTB (PBT, 0.4% BSA w/v, 5% Normal Goat Serum v/v) at room temperature. […] For each genotype, 4-5 flies were analyzed, and 6-7 muscles per fly were analyzed.
# mdx mice = assay: EDL muscle myography in mdx mice; type: in vivo, mouse; conditions: THI-oxime IP twice-daily two weeks, 75 ug per day, at 120 Hz; vehicle 58 at 100 Hz
# Protocol: The effect of THI administration on muscle function and recovery in mdx mice was analyzed. The mice were injected intraperitoneally with THI in PBS or vehicle alone (PBS) twice-daily for two weeks. Total amount of THI delivered per day was 75 ug. Extensor digitorum longus (EDL) muscles were excised from the mice and equilibrated in ringer's solution with 95% O2/5% CO2 for a minimum of 15 minutes prior to stimulation. Myography was conducted using a DMT 820S myograph and data was recorded using PowerLab 4/30 acquisition system with LabChart Pro software v7.3.1 (both from ADI instruments, Colorado Springs, Colo.). Stimulations were conducted with a Grass Instrument S88X system (Grass Technologies, West Warwick, R.I.). Muscles were stimulated to establish optimal fiber length (Lf) and voltage at which maximum tetanic force was measured at 120 Hz within a 450 ms duration.
# Specific force was calculated as previously described in Gregorevic P. et al. (Gregorevic P. et al., Muscle Nerve. 2004 September; 30(3):295-304, PMID#15318340) by normalizing to whole muscle cross-sectional area (CSA). CSA is the quotient of […] muscle mass over the optimal muscle length (Lo) which is defined as the product of muscle fiber length (Lf) with the fiber length ratio (0.44 for EDL) and mammalian muscle density (1.06).
# Muscle recovery was measured after muscle was fatigued with stimulation over 6 minutes. […] Recovery was determined by examining muscle force at 5, 10, and 15 minutes after stimulation. […] Therefore, the administration of THI improved muscle recovery and function in dystrophic mice.
# The effect of THI-oxime administration on muscle function and recovery in mdx mice was analyzed. The mice were injected intraperitoneally with THI-oxime (n=3) or PBS vehicle alone (n=4) twice-daily for two weeks and then analyzed between 1-4 days following the final day of injection. Total amount of THI-oxime delivered per day was 75 ug. Prior to euthanasia, the animals were anesthetized with 0.5 mg/g weight avertin diluted in PBS. EDL muscles were excised from the mice and equilibrated in ringer's solution (120 mM NaCl, 4.7 mM KCl, 3.15 mM MgCl2, 1.3 mM NaH2PO4, 25 mM NaHCO3, 11 mM Glucose, 1.25 mM CaCl2, pH 7.2) with 95% O2/5% CO2 for a minimum of 15 minutes prior to stimulation. All functional experiments were carried out with buffer solutions at 25° C. under constant oxygenation. Myography was conducted using a DMT 820S myograph and data was recorded using PowerLab 4/30 acquisition system with LabChart Pro software v7.3.1 (both from ADI instruments, Colorado Springs, Colo.). […] Muscles were stimulated to establish optimal fiber length (Lf) and voltage at which maximum tetanic force was measured at 120 Hz within a 450 ms duration. […]
smiles,measurement,setting,value
"CCCCCCCCCCCCC/C=C/[C@@H](O)[C@@H](N)COP(=O)(O)O [S1P, Sphingosine-1-phosphate]",average percentage of fibrosis in CTX injured TA muscles,A/J mice,significantly decreased
same,numbers of Myf5+ nuclei in areas with severe CTX damage,"mdx:myf5^nlacz/+ mice; S1P intramuscular daily for three days, TAs harvested day 4, vs vehicle TA",four-fold increase
same,Myf5+ cells for the entire cross-sectional area of treated TA,"mdx:myf5^nlacz/+ mice; S1P intramuscular daily for three days, day 4, vs vehicle TA",gross increase
same,increase in the number of eMyHC+ fibers,mdx:myf5^nlacz/+ mice; S1P treated TAs vs vehicle,3.6 fold
same,size of regenerating myofibers (minimum diameter of largest eMyHC+ fibers),mdx:myf5^nlacz/+ mice; S1P treated TAs vs vehicle,significantly greater
same,number of myogenin positive nuclei,mdx:myf5^nlacz/+ mice; S1P treated vs vehicle treated CTX injured TAs,slightly higher but not significantly different
same,levels of S6 and phosphorylated S6,Akt/mTOR signaling,significantly increased
same,levels of phosphorylated Akt and mTOR,Akt/mTOR signaling,not significantly higher
"CCCCCCCCc1ccc(CCC(N)(CO)CO)cc1 [FTY720, 2-amino-2-[2-(4-octylphenyl)ethyl]propane-1,3-diol]",wild-type myofibrils,"[1]; 10-day old flies, three days after last feeding",73.83%
"C/C(=N\O)c1nc([C@@H](O)[C@H](O)[C@H](O)CO)c[nH]1 [THI-oxime, (E)-1-(4-((1R,2S,3R)-1,2,3,4-tetrahydroxybutyl)-1H-imidazol-2-yl)-ethanone oxime]",wild-type myofibrils,"[1]; 7-day old flies, negative control 39.05%",67.62%
same,maximum specific force of EDL muscle,mdx mice,73 KN/m^2
